We go through six compounds from patent US5436229A, “Bisulfite adducts of arginine aldehydes” (Eli Lilly and Company, priority 1994, dated 1995).

Each structure is given as a SMILES string.

What all share (format): biochemical
The target in one assay is human thrombin (Homo sapiens, UniProt P00734). The experiment in a line: Thrombin amidase inhibition (Kass), chromogenic substrate. As for the experimental part: The assay is carried out by mixing 50 μl buffer (0.03M Tris, 0.15M NaCl, pH 7.4) with 25 μl of human thrombin solution (purified human thrombin, Enzyme Research Laboratories, South Bend, Ind., at 8 NIH units/ml) and 25 μl of test compound in a solvent (50% aqueous methanol (v:v)). Then 150 μl of an aqueous solution of the chromogenic substate (at 0.25 mg/ml) are added and the rates of hydrolysis of the substrate are measured by monitoring the reactions at 405 nm for the release of p-nitroaniline. Standard curves are constructed by plotting free thrombin concentration against hydrolysis rate. […] The amount of free inhibitor in each assay is calculated by subtracting the number of moles of bound thrombin from the number of moles of added inhibitor (test compound).
The Kass value is the hypothetical equilibrium constant for the reaction between thrombin and the test compound (I) . [formula]
Kass is calculated for a range of concentrations of test compounds and the mean value reported in units of liter per mole.

In another assay the target is T1, factor Xa (Homo sapiens, UniProt P00742).
T1 construct: Human factors X, Xa, IXa, XIa, and XIIa are purchased from Enzyme Research Laboratories; purchased Enzyme Research Laboratories, South Bend, Ind
The assay can be described thus: Serine protease inhibition (Kass), factor Xa. The method, then:
(§1) By substantially following the procedures described above for human thrombin, and using other human blood coagulation system serine proteases and using fibrinolytic system serine proteases, with the appropriate chromogenic substrates, identified below, the selectivity of the compounds of the present invention with respect to the coagulation factor serine proteases and to the fibronolytic serine proteases are evaluated as well as their substantial lack of interference with human plasma clot fibrinolysis.
(§2) Human factors X, Xa, IXa, XIa, and XIIa are purchased from Enzyme Research Laboratories, South Bend, Ind.; human urokinase from Leo Pharmaceuticals, Denmark; and recombinant activated Protein C (aPC) is prepared at Eli Lilly and Co. substantially according to U.S. Pat. No. 4,981,952 incorporated by reference herein in its entirety. Chromogenic substrates: N-Benzoyl-Ile-Glu-Gly-Arg-p-nitroanilide (for factor Xa); N-Cbz-D-Arg-Gly-Arg-p-nitroanilide (for factor IXa assay as the factor Xa substrate); Pyroglutamyl-Pro-Arg-p-nitroanilide (for Factor XIa and for aPC); H-D-Pro-Phe-Arg-p-nitroanilide (for factor XIIa); and Pyroglutamyl-Gly-Arg-p-nitroanilide (for urokinase); are purchased from KabiVitrum, Stockholm, Sweden, or from Midwest Biotech, Fishers, Ind. Bovine trypsin is purchased from Worthington Biochemicals, Freehold, N.J., and human plasma kallikrein from Kabi Vitrum, Stockholm, Sweden. Chromogenic substrate H-D-Pro-Phe-Arg-p-nitroanilide for plasma kallikrein is purchased from Kabi Vitrum, Stockholm, Sweden. N-Benzoyl-Phe-Val-Arg-p-nitroanilide, the substrate for human thrombin and for trypsin, is synthesized according to procedures described above for the compounds of the present invention, using known methods of peptide coupling from commercially available reactants, or purchaed from Midwest Biotech, Fishers, Ind.

A further assay addresses T2, Bovine trypsin (Bos taurus, UniProt P00760).
T2 construct: Bovine trypsin is purchased from Worthington Biochemicals; purchased Worthington Biochemicals, Freehold, N.J
T2 sequence (P00760 24-246): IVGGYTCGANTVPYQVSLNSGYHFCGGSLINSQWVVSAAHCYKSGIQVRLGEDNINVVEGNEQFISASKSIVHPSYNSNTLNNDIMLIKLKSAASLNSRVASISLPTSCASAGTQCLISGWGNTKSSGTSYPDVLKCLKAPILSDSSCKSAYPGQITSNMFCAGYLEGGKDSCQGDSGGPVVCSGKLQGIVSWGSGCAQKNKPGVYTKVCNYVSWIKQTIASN
The assay can be described thus: Serine protease inhibition (Kass), trypsin. As for the experimental part:
as §1, §2

The target in a further assay is T3, Human plasmin (Homo sapiens, UniProt P00747).
T3 construct: Human plasmin is purchased from Boehringer Mannheim; purchased Boehringer Mannheim, Indianapolis, Ind
The assay can be described thus: Serine protease inhibition (Kass), plasmin. The method, then:
as §1
(§3) Human plasmin is purchased from Boehringer Mannheim, Indianapolis, Ind.; nt-PA is purchased as single chain activity reference from American Diagnostica, Greenwich, Conn.; modified-t-PA6 (mt-PA6) is prepared at Eli Lilly and Company by procedure known in the art (See, Burck, et al., J. Biol. Chem., 265, […] (1990). Plasmin chromogenic substrate H-D-Val-Leu-Lys-p-nitroanilide and tissue plasminogen activator (t-PA) substrate H-D-Ile-Pro-Arg-p-nitroanilide are purchased from Kabi Vitrum, Stockholm, Sweden.

Assay [1] addresses T4, tissue plasminogen activator (t-PA) (Homo sapiens, UniProt P00750).
T4 construct: purchased American Diagnostica, Greenwich, Conn
The experiment in a line: Serine protease inhibition (Kass), t-PA. The method, then: as §1, §3

For assay [2], the system named is human plasma. The experiment in a line: Human plasma anticoagulation, thrombin time (TT). The method, then: (§4) Fibrinogen is prepared from in-date ACD human blood as the fraction I-2 according to previous procedures and specifications. Smith, Biochem. […] Coagulation reagents ACTIN, Thromboplastin, and Human plasma are from Baxter Healthcare Corp., Dade Division, Miami, Fla. Bovine thrombin from Parke-Davis (Detroit, Mich.) is used for coagulation assays in plasma. Coagulation assay procedures are as previously described. […] A CoAScreener coagulation instrument (American LABor, Inc.) is used for all coagulation assay measurements. […] The compounds of formula I are added to human or animal plasma over a wide range of concentrations to determine prolongation effects on the APTT, PT, and TT assays. Linear extrapolations are performed to estimate the concentrations required to double the clotting time for each assay.

Assay [3] deals with human plasma. The experiment in a line: Human plasma anticoagulation, activated partial thromboplastin time (APTT). The method, then: as §4
Assay [4] deals with human plasma. The experiment in a line: Human plasma anticoagulation, prothrombin time (PT). As for the experimental part: as §4

T1 sequence (P00742 235-488 limits assumed): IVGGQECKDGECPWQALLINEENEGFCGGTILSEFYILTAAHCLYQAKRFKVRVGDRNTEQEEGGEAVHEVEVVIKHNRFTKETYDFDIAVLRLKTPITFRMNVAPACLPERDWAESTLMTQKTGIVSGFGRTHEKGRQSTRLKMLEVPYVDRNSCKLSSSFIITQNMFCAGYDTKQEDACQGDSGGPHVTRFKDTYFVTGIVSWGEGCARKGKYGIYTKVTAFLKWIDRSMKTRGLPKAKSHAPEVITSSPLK
T1 sequence (P00742 41-179 partner limits assumed): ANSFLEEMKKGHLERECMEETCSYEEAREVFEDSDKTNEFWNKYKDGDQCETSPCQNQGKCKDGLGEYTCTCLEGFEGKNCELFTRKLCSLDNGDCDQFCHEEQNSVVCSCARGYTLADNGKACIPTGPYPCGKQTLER
T3 sequence (P00747 581-810 limits assumed): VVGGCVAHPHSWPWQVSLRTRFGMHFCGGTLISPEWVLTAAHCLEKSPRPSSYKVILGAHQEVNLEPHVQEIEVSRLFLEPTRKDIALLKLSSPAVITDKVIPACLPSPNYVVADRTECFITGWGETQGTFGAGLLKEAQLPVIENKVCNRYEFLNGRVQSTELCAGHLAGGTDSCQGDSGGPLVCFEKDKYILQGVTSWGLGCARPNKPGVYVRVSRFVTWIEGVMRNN
T3 sequence (P00747 97-580 partner limits assumed): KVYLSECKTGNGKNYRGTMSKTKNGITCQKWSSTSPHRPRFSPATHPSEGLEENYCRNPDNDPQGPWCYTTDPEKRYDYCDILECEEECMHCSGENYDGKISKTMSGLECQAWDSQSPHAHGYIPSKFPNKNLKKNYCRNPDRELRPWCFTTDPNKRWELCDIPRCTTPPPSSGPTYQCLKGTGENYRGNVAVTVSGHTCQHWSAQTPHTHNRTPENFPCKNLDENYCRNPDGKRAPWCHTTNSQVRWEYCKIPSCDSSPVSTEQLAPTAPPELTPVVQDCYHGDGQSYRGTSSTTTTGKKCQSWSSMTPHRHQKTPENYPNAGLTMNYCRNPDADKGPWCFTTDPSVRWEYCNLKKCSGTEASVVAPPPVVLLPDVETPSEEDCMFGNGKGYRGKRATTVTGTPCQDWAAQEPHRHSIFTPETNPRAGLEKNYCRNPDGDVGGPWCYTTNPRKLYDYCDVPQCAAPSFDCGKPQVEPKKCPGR
T4 sequence (P00750 36-562): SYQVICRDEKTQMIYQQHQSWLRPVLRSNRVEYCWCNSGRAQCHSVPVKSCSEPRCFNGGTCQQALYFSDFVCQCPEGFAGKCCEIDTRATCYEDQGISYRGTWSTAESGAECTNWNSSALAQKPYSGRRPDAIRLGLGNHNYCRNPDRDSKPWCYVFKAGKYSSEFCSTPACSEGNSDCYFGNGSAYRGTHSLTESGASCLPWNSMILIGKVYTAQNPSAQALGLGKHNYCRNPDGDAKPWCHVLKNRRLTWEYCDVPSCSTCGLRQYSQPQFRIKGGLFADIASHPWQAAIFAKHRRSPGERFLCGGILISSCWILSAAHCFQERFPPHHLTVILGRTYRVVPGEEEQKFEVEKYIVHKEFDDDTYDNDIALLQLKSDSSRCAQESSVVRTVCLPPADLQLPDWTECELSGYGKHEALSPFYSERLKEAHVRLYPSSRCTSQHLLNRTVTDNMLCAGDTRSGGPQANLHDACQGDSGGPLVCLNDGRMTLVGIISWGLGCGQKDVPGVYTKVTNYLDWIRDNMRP

Regarding `CCC[C@](Cc1ccccc1)(NC(=O)OCC)C(=O)N1CCC[C@H]1C(=O)N[C@H](C=O)CCCNC(=N)N.Cl` [Example 37], the “Kass Human Thrombin” value on human thrombin was determined as 47 L/mol × 10^6. For the same compound, the “Kass Xa” value at factor Xa is reported as 0.030 L/mol × 10^6. In addition, on Bovine trypsin, the “Kass Trypsin” value was found to be 4.9 L/mol × 10^6. Further, the “Kass Plasmin” value at Human plasmin is on record as 0.12 L/mol × 10^6. For the same compound, the “Kass t-PA” value in assay [1] is listed as less than 0.001 L/mol × 10^6. Also, in the assay on human plasma [2], the “2 × Clotting time TT” value was 71 ng/mL. The “2 × Clotting time APTT” value with human plasma [3] is 4,100 ng/mL. Moreover, the “2 × Clotting time PT” value with human plasma [4] is given as 2,800 ng/mL.
For the compound `CCCC(Cc1ccccc1)(NC(=O)OCC)C(=O)N1CCC[C@H]1C(=O)N[C@H](C=O)CCCNC(=N)N.Cl` (stereo partly drawn) [Example 38, N-ethoxycarbonylphenylalanyl(αn-propyl)-L-prolinyl-L-arginine aldehyde hydrochloride], the “Kass Human Thrombin” value on human thrombin is reported as 38 L/mol × 10^6. For the same compound, the “Kass Xa” value on factor Xa was 0.077 L/mol × 10^6. Also, on Bovine trypsin, the “Kass Trypsin” value worked out at 7.3 L/mol × 10^6. The “Kass Plasmin” value at Human plasmin amounted to 0.074 L/mol × 10^6. Also, in assay [1], the “Kass t-PA” value was less than 0.001 L/mol × 10^6. For the same compound, in the assay with human plasma [2], the “2 × Clotting time TT” value came to 98 ng/mL. Besides, the “2 × Clotting time APTT” value with human plasma [3] is recorded as 2,700 ng/mL. Besides, the “2 × Clotting time PT” value in the assay on human plasma [4] is 2,200 ng/mL.
With `CCCC[C@](Cc1ccccc1)(NC(=O)OCC)C(=O)N1CCC[C@H]1C(=O)N[C@H](C=O)CCCNC(=N)N.Cl` [Example 39, N-ethoxycarbonyl-D-phenylalanyl(αn-butyl)-L-prolinyl-L-arginine aldehyde hydrochloride], on human thrombin, the “Kass Human Thrombin” value was 66 L/mol × 10^6. At factor Xa, the “Kass Xa” value amounted to 0.095 L/mol × 10^6. The “Kass Trypsin” value on Bovine trypsin was 21 L/mol × 10^6. In addition, the “Kass Plasmin” value at Human plasmin amounted to 0.066 L/mol × 10^6. In addition, in assay [1], the “Kass t-PA” value is on record as less than 0.001 L/mol × 10^6. Also, the “2 × Clotting time TT” value in the assay with human plasma [2] is listed as 160 ng/mL. For the same compound, the “2 × Clotting time APTT” value with human plasma [3] was 3,400 ng/mL. Moreover, in the assay on human plasma [4], the “2 × Clotting time PT” value is given as 3,000 ng/mL.
Turning to `CCCCC(Cc1ccccc1)(NC(=O)OCC)C(=O)N1CCC[C@H]1C(=O)N[C@H](C=O)CCCNC(=N)N` (stereo partly drawn) [Example 40, N-ethoxycarbonylphenylalanyl(αn-butyl)-L-prolinyl-L-arginine aldehyde], the “Kass Human Thrombin” value on human thrombin is reported as 47 L/mol × 10^6. For the same compound, the “Kass Xa” value at factor Xa came out at 0.088 L/mol × 10^6. Besides, the “Kass Trypsin” value at Bovine trypsin turned out to be 15 L/mol × 10^6. On Human plasmin, the “Kass Plasmin” value is recorded as 0.13 L/mol × 10^6. The “Kass t-PA” value in assay [1] was determined as 0.001 L/mol × 10^6. In the assay with human plasma [2], the “2 × Clotting time TT” value was 91 ng/mL. The “2 × Clotting time APTT” value in the assay on human plasma [3] is listed as 3,100 ng/mL. The “2 × Clotting time PT” value with human plasma [4] was 2,400 ng/mL.
`CCS(=O)(=O)NC(C)(C(=O)N1CCC[C@H]1C(=O)N[C@H](C=O)CCCNC(=N)N)c1ccccc1.Cl` (stereo partly drawn) [Example 41, N-ethylsulfonyl-(D,L)-phenylglycinyl(αmethyl)-L-prolinyl-L-arginine aldehyde hydrochloride]: the “Kass Human Thrombin” value on human thrombin was 430 L/mol × 10^6. In addition, on factor Xa, the “Kass Xa” value is reported as 0.49 L/mol × 10^6. In addition, at Bovine trypsin, the “Kass Trypsin” value is listed as 42 L/mol × 10^6. Moreover, the “Kass Plasmin” value at Human plasmin is listed as 1.2 L/mol × 10^6. Moreover, in assay [1], the “Kass t-PA” value is 0.023 L/mol × 10^6. For the same compound, the “2 × Clotting time TT” value in the assay with human plasma [2] was 52 ng/mL. Also, the “2 × Clotting time APTT” value in the assay with human plasma [3] is given as 1,200 ng/mL. Also, the “2 × Clotting time PT” value in the assay on human plasma [4] is 2,100 ng/mL.
As to `C[C@@]1(C(=O)N[C@H](C=O)CCCNC(=N)N)CCCN1C(=O)[C@@H](Cc1ccccc1)NS(C)(=O)=O.Cl` [Example 43, N-methylsulfonyl-D-phenylalanyl(αmethyl)-L-prolinyl-L-arginine aldehyde hydrochloride], the “Kass Human Thrombin” value on human thrombin was determined as 31 L/mol × 10^6. Moreover, the “Kass Xa” value on factor Xa is on record as 0.23 L/mol × 10^6. In addition, the “Kass Trypsin” value on Bovine trypsin amounted to 28 L/mol × 10^6. Also, the “Kass Plasmin” value at Human plasmin is on record as 0.56 L/mol × 10^6. The “Kass t-PA” value in assay [1] came to 0.027 L/mol × 10^6. Further, the “2 × Clotting time TT” value in the assay on human plasma [2] was found to be 41 ng/mL. Moreover, in the assay with human plasma [3], the “2 × Clotting time APTT” value is 1,500 ng/mL. In addition, the “2 × Clotting time PT” value with human plasma [4] was 1,600 ng/mL.
